Converted amounts (≈) assume the structure as drawn.
Tests used:
hERG (KCNH2) = hERG (KCNH2) (Homo sapiens, UniProt Q12809); assay: Inhibition of human ERG transfected in HEK293 cells at 10 uM by whole cell patch clamp assay relative to control; assay type: cell-based; settings: HEK293 cells transfected with human ERG
[1] = test system: Mycobacterium tuberculosis; assay: Antimycobacterial activity against Mycobacterium tuberculosis H37Rv ATCC 27294 assessed as reduction in bacterial cell viability incubated for 7 days by microplate alamar blue assay; assay type: functional; settings: H37Rv ATCC 27294, 168 h
[2] = test system: Mycobacterium tuberculosis; assay: Antimycobacterial activity against Mycobacterium tuberculosis H37Rv infected in BALB/c mouse assessed as reduction in colony forming unit in lung at 25 mg/kg, po administered once daily for 5 days a week for 3 weeks; assay type: functional
[3] = AUC (0 to t) in SPF ICR mouse at 25 mg/kg, po measured upto 24 hrs by HPLC analysis; assay type: ADME, organism-based; design: dose 25 mg/kg, time < 24 hr, route oral; settings: in vivo
[4] = Tmax in SPF ICR mouse at 25 mg/kg, po measured upto 24 hrs by HPLC analysis; assay type: ADME, organism-based; settings: in vivo
[5] = Cmax in SPF ICR mouse at 25 mg/kg, po measured upto 24 hrs by HPLC analysis; assay type: ADME, organism-based; design: dose 25 mg/kg, route oral; settings: in vivo
[6] = Half life in SPF ICR mouse at 25 mg/kg, po measured upto 24 hrs by HPLC analysis; assay type: ADME, organism-based; settings: in vivo
[7] = Acute toxicity in ICR mouse assessed as mouse survival at 500 mg/kg, po observed continuously for 4 hrs and each hr for next 24 hrs and at 8 hrs interval for following 7 days; assay type: organism-based; settings: in vivo

hERG (KCNH2), sequence (Q12809 whole entry): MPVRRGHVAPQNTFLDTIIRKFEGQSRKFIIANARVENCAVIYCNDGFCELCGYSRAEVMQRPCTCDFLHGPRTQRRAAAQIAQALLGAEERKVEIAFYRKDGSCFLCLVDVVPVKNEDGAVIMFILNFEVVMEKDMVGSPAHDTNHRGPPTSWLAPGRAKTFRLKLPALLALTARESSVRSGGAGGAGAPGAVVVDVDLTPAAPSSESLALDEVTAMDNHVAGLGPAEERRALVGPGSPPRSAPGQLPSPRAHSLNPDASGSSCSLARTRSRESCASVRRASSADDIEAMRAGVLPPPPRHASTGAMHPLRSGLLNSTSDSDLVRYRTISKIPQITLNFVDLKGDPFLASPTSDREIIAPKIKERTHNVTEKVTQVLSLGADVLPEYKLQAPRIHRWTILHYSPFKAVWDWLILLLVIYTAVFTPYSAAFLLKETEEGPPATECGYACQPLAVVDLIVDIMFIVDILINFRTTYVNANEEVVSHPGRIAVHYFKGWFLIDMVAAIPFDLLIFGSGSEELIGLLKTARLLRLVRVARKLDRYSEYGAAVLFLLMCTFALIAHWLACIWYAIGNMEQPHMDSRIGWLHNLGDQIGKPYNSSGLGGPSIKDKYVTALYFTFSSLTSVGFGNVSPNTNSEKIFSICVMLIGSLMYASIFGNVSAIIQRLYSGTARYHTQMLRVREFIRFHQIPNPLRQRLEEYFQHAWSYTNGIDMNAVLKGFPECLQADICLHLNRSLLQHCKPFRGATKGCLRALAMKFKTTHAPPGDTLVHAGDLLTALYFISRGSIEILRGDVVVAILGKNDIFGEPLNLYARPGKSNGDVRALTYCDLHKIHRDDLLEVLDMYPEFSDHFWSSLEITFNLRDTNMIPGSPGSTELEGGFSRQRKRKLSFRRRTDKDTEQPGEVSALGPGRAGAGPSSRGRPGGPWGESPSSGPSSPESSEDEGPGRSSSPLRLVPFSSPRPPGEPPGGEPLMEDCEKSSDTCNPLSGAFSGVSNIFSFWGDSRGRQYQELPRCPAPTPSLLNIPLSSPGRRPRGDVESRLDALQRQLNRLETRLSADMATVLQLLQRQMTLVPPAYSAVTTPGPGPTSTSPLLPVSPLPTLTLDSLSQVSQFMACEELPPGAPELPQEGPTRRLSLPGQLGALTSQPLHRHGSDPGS

Row | SMILES | inhibition at 10 µM (hERG (KCNH2)) | MIC [1] | other results
1 | O=c1nc(N2CCC3(CCN(Cc4ccc(F)cc4)C3)CC2)sc2c([N+](=O)[O-])cc(C(F)(F)F)cc12 | 95.7% | < 0.035 µM | Activity [2]: 3.2 log10CFU
2 | O=c1nc(N2CCC3(CCN(Cc4ccc(Br)cc4)CC3)CC2)sc2c([N+](=O)[O-])cc(C(F)(F)F)cc12 | 97% | < 0.035 µM | –
3 | O=c1nc(N2CCC3(CCN(Cc4ccc(C(F)(F)F)cc4)CC3)CC2)sc2c([N+](=O)[O-])cc(C(F)(F)F)cc12 | 94.6% | < 0.035 µM | –
4 | O=c1nc(N2CC3CCC2CN3Cc2ccc(F)cc2)sc2c([N+](=O)[O-])cc(C(F)(F)F)cc12 (centres undefined) | 34.9% | 0.078 µM (≈ 0.0386 µg/mL) | AUC(0-t) at 24 h [3]: 3550 ng·h/mL; Tmax [4]: 15 min; Cmax [5]: 3040 ng/mL; half-life [6]: 75 min; Activity [7]: Non-Toxic
5 | O=c1nc(N2CCC3(CCN(CCc4ccc(F)cc4)C3)CC2)sc2c([N+](=O)[O-])cc(C(F)(F)F)cc12 | 92.7% | 0.055 µM (≈ 0.0295 µg/mL) | –
6 | O=c1nc(N2CCC3(CCN(Cc4ccncc4)C3)CC2)sc2c([N+](=O)[O-])cc(C(F)(F)F)cc12 | 74.1% | 0.122 µM (≈ 0.0617 µg/mL) | –
7 | O=c1nc(N2CCC3(CCN(Cc4cccc(F)c4F)C3)CC2)sc2c([N+](=O)[O-])cc(C(F)(F)F)cc12 | 88.5% | < 0.035 µM | –
8 | Cn1cccc1CN1CCC2(CCN(c3nc(=O)c4cc(C(F)(F)F)cc([N+](=O)[O-])c4s3)CC2)C1 | – | 0.479 µM (≈ 0.243 µg/mL) | –
9 | O=c1nc(N2CCC3(CCN(CCCc4ccc(F)cc4)C3)CC2)sc2c([N+](=O)[O-])cc(C(F)(F)F)cc12 | 85.8% | < 0.035 µM | –
10 | O=c1nc(N2CCC3(CCN(Cc4ccc([N+](=O)[O-])cc4)C3)CC2)sc2c([N+](=O)[O-])cc(C(F)(F)F)cc12 | 94.1% | < 0.035 µM | –
11 | COc1ccc2[nH]cc(CN3CCC4(CCN(c5nc(=O)c6cc(C(F)(F)F)cc([N+](=O)[O-])c6s5)CC4)C3)c2c1 | – | 1.48 µM (≈ 0.848 µg/mL) | –
12 | O=c1nc(N2CCC3(CCN(Cc4ccccc4F)C3)CC2)sc2c([N+](=O)[O-])cc(C(F)(F)F)cc12 | 94.9% | < 0.035 µM | –
13 | N#Cc1ccc(CN2CCC3(CCN(c4nc(=O)c5cc(C(F)(F)F)cc([N+](=O)[O-])c5s4)CC3)C2)cc1 | 90.6% | < 0.035 µM | –
14 | O=c1nc(N2CCC3(CCN(Cc4cc(C(F)(F)F)cc(C(F)(F)F)c4)C3)CC2)sc2c([N+](=O)[O-])cc(C(F)(F)F)cc12 | 83.3% | < 0.035 µM | –
15 | O=c1nc(N2CCC3(CCN(Cc4cccnc4)C3)CC2)sc2c([N+](=O)[O-])cc(C(F)(F)F)cc12 | – | 0.235 µM (≈ 0.119 µg/mL) | –
16 | O=c1nc(N2CCC3(CCN(Cc4ccc([N+](=O)[O-])c(Br)c4)C3)CC2)sc2c([N+](=O)[O-])cc(C(F)(F)F)cc12 | 88.6% | < 0.035 µM | –
17 | O=c1nc(N2CCC3(CCN(Cc4cccs4)C3)CC2)sc2c([N+](=O)[O-])cc(C(F)(F)F)cc12 | 96.2% | < 0.035 µM | –
18 | O=c1nc(N2CCC3(CCN(c4ccc(F)cc4)C3)CC2)sc2c([N+](=O)[O-])cc(C(F)(F)F)cc12 | 23% | < 0.035 µM | AUC(0-t) at 24 h [3]: 5030 ng·h/mL; Tmax [4]: 30 min; Cmax [5]: 1610 ng/mL; half-life [6]: 287 min; Activity [7]: Non-Toxic

Row | SMILES | inhibition at 10 µM (hERG (KCNH2)) | MIC [1] | other results
19 | CC(c1ccc(F)cc1)N1CCC2(CCN(c3nc(=O)c4cc(C(F)(F)F)cc([N+](=O)[O-])c4s3)CC2)CC1 (centres undefined) | 74% | 0.107 µM (≈ 0.0589 µg/mL) | –
20 | O=c1nc(N2CC3CC2CN3Cc2ccc(F)cc2)sc2c([N+](=O)[O-])cc(C(F)(F)F)cc12 (centres undefined) | 94.3% | < 0.035 µM | –
21 | O=c1nc(N2CCC3(CCN(Cc4ccc5ccccc5c4)C3)CC2)sc2c([N+](=O)[O-])cc(C(F)(F)F)cc12 | 78.1% | < 0.035 µM | –
22 | CC(c1ccc(Br)cc1)N1CCC2(CCN(c3nc(=O)c4cc(C(F)(F)F)cc([N+](=O)[O-])c4s3)CC2)CC1 (centres undefined) | 77.2% | < 0.035 µM | –
23 | O=c1nc(N2CCC3(CCN(Cc4cccc5ccccc45)C3)CC2)sc2c([N+](=O)[O-])cc(C(F)(F)F)cc12 | – | 0.055 µM (≈ 0.0305 µg/mL) | –
24 | CC(c1ccc(Cl)cc1)N1CCC2(CCN(c3nc(=O)c4cc(C(F)(F)F)cc([N+](=O)[O-])c4s3)CC2)CC1 (centres undefined) | 73.4% | < 0.035 µM | –
25 | O=c1nc(N2CC3CN(Cc4ccc(F)cc4)CC3C2)sc2c([N+](=O)[O-])cc(C(F)(F)F)cc12 (centres undefined) | – | 0.248 µM (≈ 0.123 µg/mL) | –
26 | O=c1nc(N2CCC3(CCN(Cc4ccc[nH]4)C3)CC2)sc2c([N+](=O)[O-])cc(C(F)(F)F)cc12 | – | 1.58 µM (≈ 0.778 µg/mL) | –
27 | CCC(c1ccc(C(F)(F)F)cc1)N1CCC2(CCN(c3nc(=O)c4cc(C(F)(F)F)cc([N+](=O)[O-])c4s3)CC2)CC1 (centres undefined) | 69.7% | < 0.035 µM | –
28 | O=c1nc(N2CCC3(CCN(Cc4ccccn4)C3)CC2)sc2c([N+](=O)[O-])cc(C(F)(F)F)cc12 | – | 0.477 µM (≈ 0.241 µg/mL) | –
29 | O=c1nc(N2CCC3(CCN(Cc4ccc(OC(F)(F)F)cc4)C3)CC2)sc2c([N+](=O)[O-])cc(C(F)(F)F)cc12 | 90.2% | < 0.035 µM | –
30 | CC(c1ccc(C(F)(F)F)cc1)N1CCC2(CCN(c3nc(=O)c4cc(C(F)(F)F)cc([N+](=O)[O-])c4s3)CC2)CC1 (centres undefined) | 72.9% | < 0.035 µM | –
31 | O=c1nc(N2CCC3(CCN(Cc4ccc(C(F)(F)F)cc4C(F)(F)F)C3)CC2)sc2c([N+](=O)[O-])cc(C(F)(F)F)cc12 | 68.6% | < 0.035 µM | –
32 | O=c1nc(N2CCC3(CCN(Cc4ncco4)C3)CC2)sc2c([N+](=O)[O-])cc(C(F)(F)F)cc12 | 53.2% | 0.248 µM (≈ 0.123 µg/mL) | –
33 | O=c1nc(N2CCN(C3CCN(Cc4ccc(F)cc4)CC3)CC2)sc2c([N+](=O)[O-])cc(C(F)(F)F)cc12 | 95.6% | 0.054 µM (≈ 0.0298 µg/mL) | –
34 | NNC(=O)c1ccncc1 [ISONIAZID] | – | 0.269 µM (≈ 0.0369 µg/mL) | –
35 | O=c1nc(N2CCN(CC3CCCCC3)CC2)sc2c([N+](=O)[O-])cc(C(F)(F)F)cc12 [MACOZINONE] | 41.6% | < 0.035 µM | AUC(0-t) at 24 h [3]: 2480 ng·h/mL; Tmax [4]: 19.8 min; Cmax [5]: 1750 ng/mL; half-life [6]: 380 min; Activity [7]: Non-Toxic
36 | CO[C@H]1/C=C/O[C@@]2(C)Oc3c(C)c(O)c4c(O)c(c(/C=N/N5CCN(C)CC5)c(O)c4c3C2=O)NC(=O)/C(C)=C\C=C\[C@H](C)[C@H](O)[C@@H](C)[C@@H](O)[C@@H](C)[C@H](OC(C)=O)[C@@H]1C [RIFAMPIN] | – | 0.164 µM (≈ 0.135 µg/mL) | –
